From the supplement of paper PMC10307832

Tests used:
Experiment in all cases: relative viability (nuclei count vs DMSO), 5 days (fraction); higher = more cells survive
[1] = compound: CCn1c(-c2nonc2N)nc2c(C#CC(C)(C)O)ncc(OC[C@H]3CCCNC3)c21 + Cc1nc(Nc2ncc(C(=O)Nc3c(C)cccc3Cl)s2)cc(N2CCN(CCO)CC2)n1 [Dasatinib] (partner 0.075 µM)
In short: (§1)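 Nuclei were stained with Hoechst during a one-step fixation (final 0.05% Triton X-100, 1% formaldehyde, 1 ug/ml Hoechst) carried out 5 days after dosing, then counted on 4× images. The cells, lung cancer lines in 1536-well plates, had been dosed by pin tool the day after seeding with one drug alone or a fixed anchor-drug dose plus five library-drug doses (not always all listed) in √10 steps. Relative viability is the nuclei count in treated wells divided by that in vehicle wells, and each value is the median of duplicate plates.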

BAM7 + OSI-027 = compound: CCOC1=CC=CC=C1N=NC2=C(NN(C2=O)C3=NC(=CS3)C4=CC=CC=C4)C [BAM7] + COc1cccc2cc(-c3nc([C@H]4CC[C@H](C(=O)O)CC4)n4ncnc(N)c34)[nH]c12 [OSI-027] (partner 0.5 µM)
In short: as §1

[2] = compound: CCn1c(-c2nonc2N)nc2c(C#CC(C)(C)O)ncc(OC[C@H]3CCCNC3)c21 + CS(=O)(=O)CCNCc1ccc(-c2ccc3ncnc(Nc4ccc(OCc5cccc(F)c5)c(Cl)c4)c3c2)o1 [Lapatinib] (partner 2 µM)
In short: as §1

BAM7 + Pictilisib = compound: CCOC1=CC=CC=C1N=NC2=C(NN(C2=O)C3=NC(=CS3)C4=CC=CC=C4)C [BAM7] + CS(=O)(=O)N1CCN(Cc2cc3nc(-c4cccc5[nH]ncc45)nc(N4CCOCC4)c3s2)CC1 [Pictilisib] (partner 1 µM)
In short: as §1

Cell Line	relative viability ([1]; first compound 0.01 µM)	relative viability ([1]; first compound 0.03162 µM)	relative viability ([1]; first compound 0.1 µM)	relative viability ([1]; first compound 0.3162 µM)	relative viability ([1]; first compound 1 µM)	relative viability (BAM7 + OSI-027; first compound 0.5 µM)	relative viability (BAM7 + OSI-027; first compound 5 µM)	relative viability (BAM7 + OSI-027; first compound 15.81 µM)	relative viability (BAM7 + OSI-027; first compound 50 µM)	relative viability ([2]; first compound 0.01 µM)	relative viability ([2]; first compound 0.03162 µM)	relative viability ([2]; first compound 0.1 µM)	relative viability ([2]; first compound 0.3162 µM)	relative viability ([2]; first compound 1 µM)	relative viability (BAM7 + Pictilisib; first compound 0.5 µM)	relative viability (BAM7 + Pictilisib; first compound 5 µM)	relative viability (BAM7 + Pictilisib; first compound 15.81 µM)	relative viability (BAM7 + Pictilisib; first compound 50 µM)
NCI-H522	0.796	0.949	0.845	0.718	0.998	0.976	0.744	0.687	0.831									
HCC-15	0.57	0.548	0.651	0.482	0.532	0.727	0.696	0.7	0.758	0.868	0.824	0.865	0.808	0.795	0.818	0.802	0.764	0.747
A-427	0.624	0.716	0.729	0.729	0.793	0.58	0.466	0.491	0.49	0.962	1.05	0.932	1.03	1.03	0.557	0.75	0.676	0.72
NCI-H2228	0.451	0.526	0.583	0.482	0.353	0.716	0.545	0.593	0.594	1.27	1.09	1.02	0.755	0.729	0.407	0.429	0.34	0.429
NCI-H1734	0.473	0.475	0.414	0.407	0.38	0.606	0.657	0.602	0.647	1.01	1.02	0.896	0.885	0.825	0.477	0.496	0.451	0.482
PC-14	0.243	0.292	0.28	0.237	0.301	0.872	0.898	0.764	0.926	0.314	0.406	0.319	0.246	0.291	0.775	1.02	0.598	0.656
NCI-H1915	0.295	0.309	0.324	0.302	0.368	0.687	0.674	0.6	0.625	0.981	0.889	0.956	0.927	0.973	1.01	1.15	0.898	1.04
NCI-H1666	0.847	0.99	0.833	0.819	0.771	0.899	0.786	0.875	0.929	0.552	0.487	0.469	0.521	0.508	0.404	0.617	0.352	0.587
HCC-366	0.597	0.6	0.602	0.593	0.606	0.879	0.839	0.729	0.784	0.967	1.02	0.953	1.03	1.09	0.163	0.163	0.141	0.0939
SK-MES-1	0.359	0.386	0.446	0.447	0.373	0.573	0.549	0.545	0.663	0.46	0.425	0.507	0.424	0.406	0.432	0.455	0.369	0.358
SW 1573	0.377	0.561	0.431	0.455	0.354	0.753	0.708	0.591	0.711	1.1	1	1.02	0.869	0.946	0.583	0.48	0.457	0.483
NCI-H661	0.996	0.86	0.9	0.751	0.764	0.662	0.704	0.761	0.686	0.505	0.539	0.249	0.502	0.489	0.406	0.426	0.452	0.423
PC-3 [JPC-3]	0.932	0.967	1.02	0.986	0.902	0.668	0.698	0.698	0.668	0.442	0.433	0.472	0.449	0.445	0.693	0.736	0.612	0.631
NCI-H1623	0.567	0.482	0.548	0.438	0.453	0.422	0.383	0.368	0.349									
Calu-6										1.06	1.14	1.11	1.04	1.07	1.01	0.98	0.893	0.823
LC-2-ad	0.384	0.487	0.509	0.414	0.641	0.918	0.865	0.8	0.902	0.993	1.01	0.906	0.975	0.977	0.581	0.222	0.383	0.427
CAL-12T	0.404	0.459	0.343	0.323	0.326	0.553	0.492	0.432	0.845	0.613	0.665	0.845	0.585	0.595	0.467	0.526	0.413	0.466
RERF-LC-KJ	0.708	0.815	0.748	0.678	0.565	0.472	0.422	0.334	0.404	0.873	0.743	0.814	0.832	0.926	0.551	0.496	0.492	0.515
NCI-H1650	0.338	0.302	0.297	0.266	0.25	0.542	0.512	0.498	0.73	0.758	0.864	0.708	0.725	0.578	0.524	0.572	0.565	0.699
BEN	0.308	0.289	0.304	0.337	0.398	0.306	0.299	0.314	0.326	0.608	0.717	0.444	0.637	0.626	0.611	0.642	0.518	0.59
EMC-BAC-2	0.302	0.29	0.333	0.297	0.34	0.378	0.384	0.355	0.461	0.871	0.83	0.866	0.88	0.938	0.521	0.542	0.595	0.559

Cell Line	relative viability ([1]; first compound 0.01 µM)	relative viability ([1]; first compound 0.03162 µM)	relative viability ([1]; first compound 0.1 µM)	relative viability ([1]; first compound 0.3162 µM)	relative viability ([1]; first compound 1 µM)	relative viability (BAM7 + OSI-027; first compound 0.5 µM)	relative viability (BAM7 + OSI-027; first compound 5 µM)	relative viability (BAM7 + OSI-027; first compound 15.81 µM)	relative viability (BAM7 + OSI-027; first compound 50 µM)	relative viability ([2]; first compound 0.01 µM)	relative viability ([2]; first compound 0.03162 µM)	relative viability ([2]; first compound 0.1 µM)	relative viability ([2]; first compound 0.3162 µM)	relative viability ([2]; first compound 1 µM)	relative viability (BAM7 + Pictilisib; first compound 0.5 µM)	relative viability (BAM7 + Pictilisib; first compound 5 µM)	relative viability (BAM7 + Pictilisib; first compound 15.81 µM)	relative viability (BAM7 + Pictilisib; first compound 50 µM)
LU99A	0.499	0.508	0.662	0.51	0.451	0.256	0.29	0.347	0.322	0.874	1.07	0.869	0.865	0.818	0.32	0.315	0.398	0.353
ABC-1	0.531	0.455	0.612	0.448	0.559	0.491	0.504	0.474	0.593	1.28	1.26	1	1.13	1.15	0.746	0.674	0.984	0.857
NCI-H2170	0.566	0.532	0.57	0.535	0.516	0.688	0.592	0.635	0.72	0.283	0.254	0.266	0.261	0.302	0.268	0.3	0.271	0.314
NCI-H1299										0.927	0.967	0.998	0.947	0.982	0.675	0.779	0.782	0.824
EBC-1										0.219	0.197	0.213	0.236	0.227	0.359	0.375	0.328	0.307
NCI-H2347	0.317	0.264		0.274	0.334	0.478	0.446		0.4	0.891	0.934	0.995	0.897	0.889	0.639	0.746	0.598	0.913
NCI-H1993	0.759	0.531	0.603	0.473	0.527	0.537	0.538	0.553	0.568	0.957	0.781	0.947	0.704	0.872	0.82	0.896	0.778	0.879
NCI-H322M	0.246	0.233	0.245	0.264	0.271	0.576	0.617	0.57	0.65	0.562	0.608	0.394	0.614	0.524	0.53	0.623	0.549	0.578
NCI-H838	0.29	0.267	0.283	0.296	0.279	0.365	0.435	0.405	0.379	1.11	1.13	1.1	0.853	0.968	0.487	0.421	0.449	0.441
HARA	0.239	0.239	0.245	0.218	0.288	0.53	0.63	0.468	0.485	0.718	0.7	0.684	0.554	0.95	0.327	0.267	0.334	0.264
NCI-H2087	0.738	0.751	0.936	0.795	0.913	0.818	0.552	0.441	0.559	0.965	0.999	0.899	1.07	1.03	1.09	1.1	0.989	0.893
NCI-H2342	0.286	0.304	0.32	0.317	0.33	0.584	0.587	0.604	0.566									
ChaGo-K-1	0.621	0.636	0.55	0.58	0.6	0.444	0.481	0.52	0.525						0.647	0.878	0.789	0.929
HCC-44						0.534	0.61	0.476	0.505	0.93	0.975	1.01	0.989	1.09	0.593	0.65	0.534	0.634
A549										0.93	0.99	1.01	0.842	0.781	0.566	0.507	0.483	0.508
SW 900	0.731	0.527	0.566	0.544	0.538	0.194	0.539	0.545	0.609									
IA-LM										0.713	0.922	0.887	0.532	0.289	0.356	0.306	0.37	0.392
NCI-H1703										0.998	1.23	1.05	0.739	0.662	0.23	0.262		0.256
NCI-H441	0.585	0.593	0.499	0.637	0.505	0.578	0.574	0.639	0.694						0.433	0.47	0.528	0.519
LCLC-103H	0.381	0.451	0.445	0.444	0.433	0.366	0.505	0.504	0.537						0.611	0.654	0.604	0.687
NCI-H1648						0.275	0.282		0.283									
